In patent US4061757A, “Compounds having juvenile hormone activity” (A/S Cheminova, priority 1971, dated 1977):

What was measured:
Tenebrio molitor L = assay: Tenebrio test (topical application to pupae, morphological inhibition of adult characters); format: in vivo, Tenebrio molitor L (yellow mealworm); conditions: for ID-50 morph.: Table I, topical, acetone solution, 0.5 to 2 hours old pupae (150 mg), 27° C, 70% RH
Description: (§1) The biological tests are examplified by tests on the yellow mealworm, Tenebrio molitor L, Galleria mellonella L, Culex pipiens L, Aedes aegypti L and Drosophila melanogaster L.
Tenebrio test: The material in question is applied topically to the abdomen of 0.5 to 2 hours old pupae of the said species, as a solution in acetone. The pupae are held at 27° C and 70% RH, ecdysis occuring 5 to 7 days later. The degree of inhibition of adult characters is referred to an arbitrary scale, where a morphologically perfect adult is given the character 0%, and a perfect second pupae 100%. In Table 1 is given the morphological inhibition dose 50% (ID 50 morph.) for some of the chemicals invented, in μg per standard pupa (150 mg). ID 50 morph. refers to specimens showing predominantly adult characters in the front part, pupal characters in the abdomen.
ID50 morph is as said above the dose causing development of individuals showing predominantly adult characters in the front part and pupal characters in the abdomen. It is known that ID50 -doses in general are 10 times greater than ED50 -doses.

Aedes aegypti L = assay: Aedes test (same test as for Culex); format: in vivo; conditions: Table I, mature larvae, loss of 50% of test animals, read-out: IC-50 eclos
Description: as §1
Culex test: The compounds are tested on mature larvae. The concentration (IC-50 eclos.) is given in ppm.
Aedes test: The same test as for Culex.

[1] = system: Drosophila melanogaster L; assay: Drosophila test (compound in agar based food, pupae which fail in ecdysis); format: in vivo; conditions: Table I, in artificial agar based food, pupae failing in ecdysis
Description: as §1
Drosophila test: One ml of acetone solution of the compound to be tested is mixed with an artificial agar based food mixture just before this solidifies. Ten less than one day old adult flies -- five of each sex -- are added, and all abnormalities observed for two generations. Juvenile hormone activity is especially noted in the pupae which fail in ecdysis. EC50 -eclos. is given in ppm.

Culex pipiens L = assay: Culex test (mature larvae, loss of 50% of test animals); format: in vivo; conditions: Table I, read-out: IC-50 eclos.
Description: The biological tests are examplified by tests on the yellow mealworm, Tenebrio molitor L, Galleria mellonella L, Culex pipiens L, Aedes aegypti L and Drosophila melanogaster L. Culex test: The compounds are tested on mature larvae. The concentration (IC-50 eclos.) is given in ppm.

Compound | ID-50 morph. (Tenebrio molitor L) [μg/pupa] | further results
C/C(=C\COc1ccc(C)nc1)CCC1OC1(C)C (centres unmarked) [Compound 2, 6,7-epoxy-3,7-dimethyl-1-(6'-methyl-3'-pyridyloxy)-2-octene] | 0.002 | IC50 (inhibition of eclosion) (Aedes aegypti L): 0.1 µg/mL
CCc1ccc(OCCC(C)CCC=C(C)C)cn1 (centres unmarked) [Compound 37, 3,7-dimethyl-1-(6'-ethyl-3'-pyridyloxy)-6-octene] | 0.2 | EC-50 eclos [1]: > 100 ppm
CCc1ccc(OCC=C(C)CCC=C(C)C)cn1 [Compound 7, 3,7-Dimethyl-1-(6'-ethyl-3'-pyridyloxy)-2,6-octadiene] | 0.005 | IC50 for inhibition of adult emergence (eclosion) (Culex pipiens L): 0.05 µg/mL; EC-50 eclos [1]: > 100 ppm
CC(C)=CCCC(C)=CCOc1cccnc1CO [Compound 25, 3,7-Dimethyl-1-(2'-hydroxymethyl-3'-pyridyloxy)-2,6-octadiene] | 10. | –
CC(C)=CCC/C(C)=C/CNc1cccnc1 [Compound 5, N,3'-3,7-dimethyl-2,6-octadienyl-1-(3'-a-minopyridine)] | 40.0 | IC50 for inhibition of adult emergence (eclosion) (Culex pipiens L): 10 µg/mL
C/C(=C\COc1ccc(C)nc1)CCCC(C)(C)O [Compound 4, 7-hydroxy-3,7-dimethyl-1-(6'-methyl-3'-pyridyloxy)-2-octene] | 4.0 | –
CCc1ccc(OCCC(C)CCCC(C)(C)OC)cn1 (centres unmarked) [Compound 40, 7-Methoxy-3,7-dimethyl-1l-(6'-ethyl-3'-pyridyloxy)-octane] | 0.02 | EC-50 eclos [1]: > 100 ppm
COC(C)(C)CCCC(C)=CCOc1ccc(C)nc1 [Compound 21, 7-Metoxy-3,7-dimethyl-1-(6'-methyl-3'-pyridyloxy)-2-octene] | 1.0 | IC50 for inhibition of adult emergence (eclosion) (Culex pipiens L): < 10 µg/mL; IC50 (inhibition of eclosion) (Aedes aegypti L): 1 µg/mL
CC(C)=CCCC(C)=CCOc1cccnc1C [Compound 26, 3,7 Dimethyl-1-(2'-methyl-3'-pyridyloxy)-2,6-octadiene] | 10. | –
CC(C)=CCCC(C)=CCOc1ccc(C)nc1[N+](=O)[O-] [Compound 24, 3,7-Dimethyl-1l-(2'-nitro-6'-methyl-3'-pyridyloxy)-2,6-octadiene] | 75. | IC50 for inhibition of adult emergence (eclosion) (Culex pipiens L): > 10 µg/mL
CCOC(C)(C)CCCC(C)=CCOc1ccc(CC)nc1 [Compound 27, 7-Ethoxy-3,7-dimethyl-1-(6'-ethyl-3'-pyridyloxy)-2-octene] | 0.0001 | IC50 for inhibition of adult emergence (eclosion) (Culex pipiens L): < 1 µg/mL; EC-50 eclos [1]: > 100 ppm
COc1ccc(OCC=C(C)CCC=C(C)C)cn1 [Compound 9, 3,7-Dimethyl-1-(6'-methoxy-3'-pyridyloxy)-2,6-acetadiene] | 0.02 | ID 50 morph. (Tenebrio molitor L; Table II, compounds of the formula I, Tenebrio): 0,02 μg/150 mg pupa
CCOC(C)(C)CCCC(C)=CCOc1cccnc1 [Compound 16, 7-Ethoxy-3,7-dimethyl-1-(3'-pyridyloxy)-2-octene] | 0.009 | –
CCC(C)=CCCC(C)=CCOc1ccc(CC)nc1 [Compound 29, 3,7-Dimethyl-1-(6'-ethyl-3'-pyridyloxy)-2,6-nonadiene] | 0.02 | EC-50 eclos [1]: > 100 ppm
CCC(=CCOc1cccnc1)CCC1OC1(C)CC (centres unmarked) [Compound 19, 6,7-Epoxy-3-ethyl-7-methyl-1-(3'-pyridyloxy)-2-nonene] | 0.02 | –
COc1ccc(NCC=C(C)CCC=C(C)C)cn1 [Compound 17, N, 3'-3,7-Dimethyl-2,6-octadienlyl-(6'methoxy-3'-aminopyridin)] | 0.4 | –
CC(C)=CCCC(C)=CCOc1ccc(C)nc1CO [Compound 31, 3,7-Dimethyl-1-(2'-hydroxymethyl-6'-methyl-3'pyridyloxy)-2,6-octadiene] | 10 | IC50 for inhibition of adult emergence (eclosion) (Culex pipiens L): > 10 µg/mL

Compound | ID-50 morph. (Tenebrio molitor L) [μg/pupa] | further results
CCOC(C)(C)CCCC(C)CCOc1ccc(C)nc1 (centres unmarked) [Compound 36, 7-Ethoxy-3,7-dimethyl-1-(6'-methyl-3'-pyridyloxy)-octane] | 0.05 | EC-50 eclos [1]: > 100 ppm
CCC(=CCOc1ccc(C)nc1)CCC1OC1(C)CC (centres unmarked) [Compound 14, 6,7-Epoxu-3-ethyl-7-methyl-1-(6'-methyl-3'-pyridyloxy)-2-nonene] | 0.002 | –
CCC(C)=CCCC(=CCOc1cccnc1)CC [Compound 18, 3-Ethyl-7-methyl-1-(3'-pyridyloxy)-2,6-nonadiene] | 0.2 | –
CC(C)=CCCC(C)=CCOc1cccnc1 [Compound 6, 3,7-Dimethyl-1-(3'-pyridyloxy)-2,6-octadiene] | 3.0 | –
Cc1ccc(OCCC(C)CCC2OC2(C)C)cn1 (centres unmarked) [Compound 35, 6,7-epoxy-3,7-dimethyl-1-(6'-methyl-3'pyridyloxy)-octane] | 0.05 | –
CC(C)=CCCC(C)CCOc1ccc(C)nc1 (centres unmarked) [Compound 34, 3,7-dimethyl-1-(6'-methyl-3'-pyridyloxy)-6-octene] | 0.4 | IC50 for inhibition of adult emergence (eclosion) (Culex pipiens L): 0.5 µg/mL
CCC(C)=CCCC(=CCOc1ccc(CC)nc1)CC [Compound 11, 3-EThyl-7-methyl-1-(6'-ethyl-3'-pyridyloxy)-2,6-nonadiene] | 0.001 | –
COC(C)(C)CCCC(C)=CCOc1cccnc1 [Compound 20, 7-Methoxy-3,7-dimethyl-1l-(3'-pyridyloxy)-2-ocetene] | 1.0 | –
CCOC(C)(C)CCC/C(C)=C/COc1ccc(C)nc1 [Compound 3, 7-ethoxy-3,7-dimethyl-1-(6'-methyl-3'-pyridyloxy)-2-octene] | 0.001 | IC50 for inhibition of adult emergence (eclosion) (Culex pipiens L): < 10 µg/mL
CCOC(C)(CC)CCCC(=CCOc1cccnc1)CC (centres unmarked) [Compound 22, 7-Ethoxy-3-ethyl-7-methyl-1-(3'-pyridyloxy)-2-nonene] | 0.01 | –
CC(C)=CCCC(C)CCOc1cccnc1 (centres unmarked) [Compound 32, 3,7-Dimethyl-1-(3'-pyridyloxy)-6-octene] | 5. | IC50 for inhibition of adult emergence (eclosion) (Culex pipiens L): 0.2 µg/mL
CCC(C)=CCCC(=CCOc1ccc(C)nc1)CC [Compound 10, 3-Ethyl-7-methyl-1l-(6'-methyl-3'-pyridyloxy)-2,6-nonadiene] | 0.002 | –
CC(=CCOc1cccnc1)CCC1OC1(C)C (centres unmarked) [Compound 12, 6,7-Epoxy-3,7-dimethyl-1l-(3'-pyridyloxy)-2-ocetene] | 0.2 | –
CCOC(C)(CC)CCCC(=CCOc1ccc(C)nc1)CC (centres unmarked) [Compound 23, 7-Ethoxy-3-ethyl-7-methyl-1l-(6'-methyl-3'-pyridyloxy)-2-nonene] | 0.001 | IC50 for inhibition of adult emergence (eclosion) (Culex pipiens L): 0.5 µg/mL
CC(C)=CCCC(C)=CCOc1ccc(C(C)C)nc1 [Compound 8, 3,7-Dimethyl-1-(6'-isopropyl-3'-pyridyloxy)-2,6-octadiene] | 0.004 | –
CCC(=CCOc1ccc(CC)nc1)CCC1OC1(C)CC (centres unmarked) [Compound 15, 6,7 Epoxy-3-ethyl-7-methyl-1-(6'-ethyl-3'-pyridyloxy)-2l-nonene] | 0.0001 | –
CCc1ccc(OCC=C(C)CCCC(C)(C)OC)cn1 [Compound 28, 7-Methoxy-3,7-dimethyl-1-(6'-ethyl-3'-pyridyloxy)-2-octene] | 0.001 | –
